In publication PMC9389588, “1,6-epi-Cyclophellitol Cyclosulfamidate Is a Bona Fide Lysosomal α-Glucosidase Stabilizer for the Treatment of Pompe Disease” (Journal of the American Chemical Society, 2022):

What was measured:
[1] = molecular target: T1, glucosylceramide synthase (GCS) (Mus musculus, UniProt O88693); assay: in situ cell inhibition of GCS in RAW 264.7 cells, glucosylation of C6-NBD-ceramide; assay type: cell-based; conditions: mean ± SD
T1 construct: endogenous in cells; host or cells: RAW 264.7
T1 sequence (O88693 1-394): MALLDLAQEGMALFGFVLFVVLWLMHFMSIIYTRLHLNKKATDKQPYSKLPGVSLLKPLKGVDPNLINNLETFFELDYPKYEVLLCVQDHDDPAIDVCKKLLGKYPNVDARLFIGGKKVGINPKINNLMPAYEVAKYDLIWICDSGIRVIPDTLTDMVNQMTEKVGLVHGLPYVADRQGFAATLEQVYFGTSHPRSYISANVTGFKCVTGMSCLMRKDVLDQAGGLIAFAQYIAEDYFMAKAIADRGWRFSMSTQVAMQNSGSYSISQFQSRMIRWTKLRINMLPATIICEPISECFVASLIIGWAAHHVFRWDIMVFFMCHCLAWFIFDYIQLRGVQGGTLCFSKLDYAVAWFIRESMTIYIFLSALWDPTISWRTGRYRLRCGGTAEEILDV

[2] = molecular target: T2, rhGAA (Myozyme) (Homo sapiens, UniProt P10253); assay: time-dependent inhibition of GAA; assay type: biochemical; conditions: preincubation 15-240 min at apparent IC50 concentration
T2 construct: purchased Sanofi Genzyme
Procedure: 2.1 Biochemical and Biological Methods
2.1.1 In vitro apparent IC50 experiments
To determine in vitro apparent IC50 values, 40 μL of enzyme-mixture was pre-incubated with 40 μL of inhibitor for […]
and 2% DMSO (v/v). GANAB in 150 mM McIlvaine buffer pH 7.0, 0.1% BSA (w/v) and 2% DMSO (v/v). GBA1 in 150 mM McIlvaine buffer pH 5.2, 0.2% Taurocholate (w/v), 0.1% Triton X-100 (v/v), 0.1% BSA (w/v), 2% DMSO (v/v). GBA2 in 150 mM McIlvaine pH 5.8, 0.1% BSA (w/v).
After preincubation, 25 μL of E+I mixture was added to a 96 wells plate and 100 μL substrate solution in the appropriate buffer was subsequently added. GAA activity was measured using final concentrations of 47 nM enzyme (Myozyme) and 3.0 mM 4-MU-α-D-glucopyranoside, for 30 minutes at 37 ℃. GANAB activity was measured using wt fibroblasts and 2.4 mM 4-MU-α-D-glucopyranoside, for 2 h at 37 ℃. GBA1 activity was measured using final concentrations of 0.7 nM enzyme (Cerezyme) and 3.0 mM 4-methylumbeliferone(4-MU)-β-D-glucopyranoside, for 30 min at 37 ℃. GBA2 residual activity was measured using cellular homogenates of HEK293T over-expressing GBA2 pre-incubated for 30 min with a GBA1 inhibitor (1 µM 37 (ME656), see Figure S1 for chemical structure), and further incubation with 3.0 mM 4-methylumbeliferone(4MU)-β-D-glucopyranoside […]

[3] = molecular target: T2, rhGAA (Myozyme); assay: thermostability assay of Myozyme, Tycho NT.6; assay type: binding
[4] = system: GAA activity in zebrafish larvae; assay: in vivo stabilization of rhGAA in zebrafish embryo, GAA activity in homogenates; conditions: co-injected with Myozyme 34 pmol, 5 dpf

Row | Compound | IC50 [1] | type of inhibition [2] | effect on rhGAA thermostability, in words ([3]; increasing temperature) | maximum shift in inflection temperature (ΔTimax) ([3]; Myozyme 1 μM, 0-20 μM compound, pH 6.5) | EC50 ([3]; Myozyme 1 μM, 0-20 μM compound, pH 6.5, read-out: EC50 of thermal stabilization) | increase in GAA activity compared to zebrafish injected with only Myozyme ([4]; 1:4 Myozyme:chaperone ratio) | change in GAA activity at high concentration ([4]; 1:10 ratio)
1 | O=S1(=O)N[C@H]2[C@H](CO)[C@@H](O)[C@H](O)[C@@H](O)[C@H]2O1 [compound 6] | > 50 µM | irreversible inhibitor | does not prevent enzyme unfolding |  |  |  | 
2 | O=S1(=O)N[C@@H]2[C@H](O)[C@@H](O)[C@H](O)[C@@H](CO)[C@@H]2O1 [compound 4, 1,6-epi-cyclophellitol cyclosulfamidate] | > 50 µM | competitive manner |  | 11.2 °C | 1.16 µM | ~25% | small decrease in GAA activity
